Experimental findings from patent publication US20260355165A1, “2,3,4,9-TETRAHYDRO-1H-PYRIDO[3,4-B]INDOLE DERIVATIVES AS ESTROGEN RECEPTOR MODULATORS FOR THE TREATMENT OF CANCER” (Olema Pharmaceuticals, Inc., priority 2022, published 2026) are described below.

The target of this test is T1, estrogen receptor (Homo sapiens, UniProt P03372).
T1 construct: endogenous in cells; host or cells: ECC-1 cells
T1 sequence (P03372 1-595): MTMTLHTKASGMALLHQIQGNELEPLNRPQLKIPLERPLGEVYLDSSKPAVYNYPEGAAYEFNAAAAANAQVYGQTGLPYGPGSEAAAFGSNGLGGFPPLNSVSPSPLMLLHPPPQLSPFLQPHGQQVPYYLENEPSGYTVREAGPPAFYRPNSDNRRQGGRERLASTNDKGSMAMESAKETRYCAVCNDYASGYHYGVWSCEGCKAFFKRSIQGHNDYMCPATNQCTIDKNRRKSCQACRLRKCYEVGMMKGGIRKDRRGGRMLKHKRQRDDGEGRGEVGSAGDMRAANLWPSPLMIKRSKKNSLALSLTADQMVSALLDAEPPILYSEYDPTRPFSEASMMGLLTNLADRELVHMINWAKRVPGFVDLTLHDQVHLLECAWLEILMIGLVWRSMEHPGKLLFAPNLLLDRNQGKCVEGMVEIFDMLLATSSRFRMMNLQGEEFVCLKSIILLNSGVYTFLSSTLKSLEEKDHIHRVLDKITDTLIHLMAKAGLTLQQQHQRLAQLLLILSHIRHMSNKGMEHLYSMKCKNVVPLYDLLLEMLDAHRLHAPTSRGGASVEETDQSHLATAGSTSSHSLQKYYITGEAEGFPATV
Kind of test: AP assay (alkaline phosphatase activity in ECC-1 cells), agonist mode (absence of E2) and antagonist mode (presence of 500 pM E2). Format: cell-based. The conditions noted are these: 3 days, AP activity normalized to 500 pM E2 alone, agonist and antagonist mode combined. On the procedure:
ECC-1 cells were trypsinized and resuspended in hormone-depleted media and plated at a density of 15 k cells per well into a 96-well plate for at least 4 hours. Cells were treated with test compounds in the absence of E2 (for agonist mode) or in the presence of 500 pM E2 (for antagonist mode) for 3 days and plates were subsequently frozen at −80 °C. Thawed plates were incubated with a chromogenic substrate of AP, p-nitrophenyl phosphate (Thermo Fisher Scientific), for 40 minutes at 42 °C, and absorbances were read at 405 nm. AP activity was normalized to the activity of 500 pM E2 alone.
The compound numbers correspond to the compound numbers of Table 1 and 2. Compounds having an activity designated as “+” provided estrogen receptor agonism having (i) at least 80% increase in the E2-normalized signal in the AP assay (agonist mode) and (ii) no more than 80% reduction in the E2-normalized signal in the AP assay (antagonist mode). Compounds having an activity designated as “++” provided estrogen receptor antagonism having (i) between 10% and 80% increase in the E2-normalized signal in the AP assay (agonist mode) and (ii) between 10% and 80% reduction in the E2-normalized signal in the AP assay (antagonist mode).

`CCCN1CC(n2ncc3cc([C@@H]4c5[nH]c6ccccc6c5C[C@@H](C)N4CC(F)(F)CO)ccc32)C1` (racemic) [Compound I-105, 2,2-difluoro-3-[rac-(1R,3R)-3-methyl-1-[1-(1-propylazetidin-3-yl)indazol-5-yl]-1,3,4,9-tetrahydropyrido[3,4-b]indol-2-yl]propan-1-ol]: the “Activity (estrogen receptor modulation, e.g., agonism and antagonism)” value (shortened to “Activity”) is “++ (estrogen receptor antagonism having (i) between 10% and 80% increase in the E2-normalized signal in the AP assay (agonist mode) and (ii) between 10% and 80% reduction in the E2-normalized signal in the AP assay (antagonist mode))”.

Take `C[C@@H]1Cc2c([nH]c3ccccc23)[C@@H](c2ccc3c(cnn3C3CN(CCCF)C3)c2)N1CC(F)(F)CO` (racemic) [Compound I-106, 2,2-difluoro-3-[rac-(1R,3R)-1-[1-[1-(3-fluoropropyl)azetidin-3-yl]indazol-5-yl]-3-methyl-1,3,4,9-tetrahydropyrido[3,4-b]indol-2-yl]propan-1-ol]: the “Activity” value is “++ (estrogen receptor antagonism having (i) between 10% and 80% increase in the E2-normalized signal in the AP assay (agonist mode) and (ii) between 10% and 80% reduction in the E2-normalized signal in the AP assay (antagonist mode))”.

Regarding `CCN1CC(n2cc3cc([C@@H]4c5[nH]c6ccccc6c5C[C@@H](C)N4CC(F)(F)CO)ccc3n2)C1` (racemic) [Compound I-107, 2,2-difluoro-3-[rac-(1R,3R)-1-[2-(1-ethylazetidin-3-yl)indazol-5-yl]-3-methyl-1,3,4,9-tetrahydropyrido[3,4-b]indol-2-yl]propan-1-ol], the “Activity” value was “+ (estrogen receptor agonism having (i) at least 80% increase in the E2-normalized signal in the AP assay (agonist mode) and (ii) no more than 80% reduction in the E2-normalized signal in the AP assay (antagonist mode))”.

As to `CCCN1CC(n2cc3cc([C@@H]4c5[nH]c6ccccc6c5C[C@@H](C)N4CC(F)(F)CO)ccc3n2)C1` (racemic) [Compound I-108, 2,2-difluoro-3-[rac-(1R,3R)-3-methyl-1-[2-(1-propylazetidin-3-yl)indazol-5-yl]-1,3,4,9-tetrahydropyrido[3,4-b]indol-2-yl]propan-1-ol], the “Activity” value is “+ (estrogen receptor agonism having (i) at least 80% increase in the E2-normalized signal in the AP assay (agonist mode) and (ii) no more than 80% reduction in the E2-normalized signal in the AP assay (antagonist mode))”.

For the compound `C[C@@H]1Cc2c([nH]c3ccccc23)[C@@H](c2c[nH]c3cc(CO)ccc23)N1CC(C)(C)F` [Compound I-1, [3-[(1R,3R)-2-(2-fluoro-2-methyl-propyl)-3-methyl-1,3,4,9-tetrahydropyrido[3,4-b]indol-1-yl]-1H-indol-6-yl]methanol], the “Activity” value was “+ (estrogen receptor agonism having (i) at least 80% increase in the E2-normalized signal in the AP assay (agonist mode) and (ii) no more than 80% reduction in the E2-normalized signal in the AP assay (antagonist mode))”.

Take `C[C@@H]1Cc2c([nH]c3ccccc23)[C@@H](c2n[nH]c3cc(CO)ccc23)N1CC(C)(C)F` [Compound I-2, [3-[(1S,3R)-2-(2-fluoro-2-methyl-propyl)-3-methyl-1,3,4,9-tetrahydropyrido[3,4-b]indol-1-yl]-1H-indazol-6-yl]methanol]: the “Activity” value is “+ (estrogen receptor agonism having (i) at least 80% increase in the E2-normalized signal in the AP assay (agonist mode) and (ii) no more than 80% reduction in the E2-normalized signal in the AP assay (antagonist mode))”.

For the compound `C[C@@H]1Cc2c([nH]c3ccccc23)[C@@H](c2c[nH]c3cc(C(=O)O)ccc23)N1CC(C)(C)F` [Compound I-3, 3-[(1R,3R)-2-(2-fluoro-2-methyl-propyl)-3-methyl-1,3,4,9-tetrahydropyrido[3,4-b]indol-1-yl]-1H-indole-6-carboxylic acid], the “Activity” value is “+ (estrogen receptor agonism having (i) at least 80% increase in the E2-normalized signal in the AP assay (agonist mode) and (ii) no more than 80% reduction in the E2-normalized signal in the AP assay (antagonist mode))”.

For `C[C@@H]1Cc2c([nH]c3ccccc23)[C@@H](c2n[nH]c3cc(C(=O)O)ccc23)N1CC(C)(C)F` [Compound I-4, 3-[(1S,3R)-2-(2-fluoro-2-methyl-propyl)-3-methyl-1,3,4,9-tetrahydropyrido[3,4-b]indol-1-yl]-1H-indazole-6-carboxylic acid], the “Activity” value was “+ (estrogen receptor agonism having (i) at least 80% increase in the E2-normalized signal in the AP assay (agonist mode) and (ii) no more than 80% reduction in the E2-normalized signal in the AP assay (antagonist mode))”.

`C[C@@H]1Cc2c([nH]c3ccccc23)[C@@H](c2c[nH]c3cc(CN4CC(CF)C4)ccc23)N1CC(C)(C)F` [Compound I-5, (1R,3R)-1-[6-[[3-(fluoromethyl)azetidin-1-yl]methyl]-1H-indol-3-yl]-2-(2-fluoro-2-methyl-propyl)-3-methyl-1,3,4,9-tetrahydropyrido[3,4-b]indole]: the “Activity” value is “++ (estrogen receptor antagonism having (i) between 10% and 80% increase in the E2-normalized signal in the AP assay (agonist mode) and (ii) between 10% and 80% reduction in the E2-normalized signal in the AP assay (antagonist mode))”.

In the case of `CC1CN(Cc2ccc3c([C@@H]4c5[nH]c6ccccc6c5C[C@@H](C)N4CC(C)(C)F)c[nH]c3c2)C1` [Compound I-6, (1R,3R)-2-(2-fluoro-2-methyl-propyl)-3-methyl-1-[6-[(3-methylazetidin-1-yl)methyl]-1H-indol-3-yl]-1,3,4,9-tetrahydropyrido[3,4-b]indole], the “Activity” value was “++ (estrogen receptor antagonism having (i) between 10% and 80% increase in the E2-normalized signal in the AP assay (agonist mode) and (ii) between 10% and 80% reduction in the E2-normalized signal in the AP assay (antagonist mode))”.

For `CCCN(C)Cc1ccc2c([C@@H]3c4[nH]c5ccccc5c4C[C@@H](C)N3CC(C)(C)F)c[nH]c2c1` [Compound I-7, N-[[3-[(1R,3R)-2-(2-fluoro-2-methyl-propyl)-3-methyl-1,3,4,9-tetrahydropyrido[3,4-b]indol-1-yl]-1H-indol-6-yl]methyl]-N-methyl-propan-1-amine], the “Activity” value was “+ (estrogen receptor agonism having (i) at least 80% increase in the E2-normalized signal in the AP assay (agonist mode) and (ii) no more than 80% reduction in the E2-normalized signal in the AP assay (antagonist mode))”.

For `C[C@@H]1Cc2c([nH]c3ccccc23)[C@@H](c2c[nH]c3cc(CNCCCF)ccc23)N1CC(C)(C)F` [Compound I-8, 3-fluoro-N-[[3-[(1R,3R)-2-(2-fluoro-2-methyl-propyl)-3-methyl-1,3,4,9-tetrahydropyrido[3,4-b]indol-1-yl]-1H-indol-6-yl]methyl]propan-1-amine], the “Activity” value was “+ (estrogen receptor agonism having (i) at least 80% increase in the E2-normalized signal in the AP assay (agonist mode) and (ii) no more than 80% reduction in the E2-normalized signal in the AP assay (antagonist mode))”.
